Data set [1] is described as follows: Photo-physical properties in aqueous HEPES buffer solution. Format: physicochemical. The settings on record: aqueous HEPES buffer 20 mM, pH 7.4. The protocol:
Photo-physical properties of I-1-I-5 was measured in aqueous HEPES [4-(2-hydroxyethyl)piperazine-1-ethanesulfonic acid] buffer solution (20 mM, pH 7.4); NAO bromide was used as reference compound. Similar to NAO, derivatives I-1-I-5 have absorption maxima at 494-498 nm, and emission maxima at 528-529 nm (Table 1). […] Moreover, the trimethylsilylpropyl substituent in position 10 improved PLQY up to 60.7% (I-5). […] The introduction of longer alkyl chains such as nonyl and dodecyl led to PLQY decrease.

A short description of data set [2]: Fluorescence intensity in the presence of DOPC liposomes without cardiolipin (selectivity). Format: binding. The protocol: (§1) Besides, NAO fluorescence intensity loss during interaction of DOPC was detected at 5.6% level.
(§2) Liposomes preparation. Vesicles were prepared by classic thin film method. […] Obtained large multilamellar liposomes were sonicated in a bath-type sonicator at room temperature for 30 min following by extrusion through a 100 nm polycarbonate filter for 21 times. The quality of the resulting small unilamellar vesicles was monitored by dynamic light scattering (DLS) technique. These stock solutions were diluted 5-fold to acquire 2nd stock solutions that were used in the fluorometric experiments.

A short description of data set [3]: Stability of fluorescence during experiments. Format: physicochemical. The settings on record: in 30 minutes.
From the text: as §1

Data set [4] can be described thus: Fluorescence intensity on interaction with CL/DOPC liposomes. Format: binding. The settings on record: for fluorescence intensity after interaction with CL/DOPC liposomes: CL/DOPC liposomes (3:1), end value of the drop; for fluorescence intensity before interaction with CL/DOPC liposomes: start value of the drop. The protocol: as §2
Data set [5] in a line: Titration with cardiolipin, linear regression curve. Format: binding. The procedure:
as §2

For data set [6] the following is noted: decrease of green fluorescence in the presence of CL; cited from earlier work.

The structures appear in SMILES notation.

Take `C[n+]1c2cc(N3CCC3)ccc2cc2ccc(N3CCC3)cc21.[I-]` [Compound I-1, 3,6-di(azetidin-1-yl)-10-methylacridin-10-ium iodide]: in data set [1], the “Φ (PLQY, photoluminescence quantum yield)” value came to 59.9%; the λabs stood at 497 nm; the λem was 529 nm.

For the compound `[2H]C([2H])([2H])[n+]1c2cc(N3CCC3)ccc2cc2ccc(N3CCC3)cc21.[I-]` [Compound I-2, 3,6-di(azetidin-1-yl)-10-(methyl-d3)acridin-10-ium iodide], in data set [1], the “Φ (PLQY, photoluminescence quantum yield)” value was found to be 61.5%; the λabs is 497 nm; the λem was 529 nm.

On to `CCCCCCCCC[n+]1c2cc(N3CCC3)ccc2cc2ccc(N3CCC3)cc21.[I-]` [Compound I-3, 3,6-di(azetidin-1-yl)-10-nonylacridin-10-ium iodide], for which, in data set [1], the “Φ (PLQY, photoluminescence quantum yield)” value turned out to be 47.9%; the λabs amounted to 498 nm; the λem is 529 nm.

As for `CCCCCCCCCCCC[n+]1c2cc(N3CCC3)ccc2cc2ccc(N3CCC3)cc21.[I-]` [Compound I-4, 3,6-di(azetidin-1-yl)-10-dodecylacridin-10-ium iodide], in data set [1], the “Φ (PLQY, photoluminescence quantum yield)” value amounted to 16.1%; the λabs was 494 nm; the λem turned out to be 528 nm.

Consider `C[Si](C)(C)CCC[n+]1c2cc(N3CCC3)ccc2cc2ccc(N3CCC3)cc21.[I-]` [Compound I-5, 3,6-di(azetidin-1-yl)-10-(3-(trimethylsilyl)propyl)acridin-10-ium iodide], for which the “fluorescence intensity drop in the presence of DOPC liposomes” value in data set [2] is given as 7.7%. Moreover, the “fluorescence intensity drop during experiments” value in data set [3] was “remaining the same”. Also, in data set [1], the “Φ (PLQY, photoluminescence quantum yield)” value is 60.7%; the λabs turned out to be 497 nm; the λem was 529 nm. In data set [4], the “fluorescence intensity after interaction with CL/DOPC liposomes” value amounted to 6600 a.u and the “fluorescence intensity before interaction with CL/DOPC liposomes” value is on record as 65800 a.u. Also, in data set [5], the “linear slope of the titration curve” value was −6259±250.

In the case of `CCCCCCCCC[n+]1c2cc(N(C)C)ccc2cc2ccc(N(C)C)cc21` [NAO, 10-N-nonyl acridine orange, reference compound], the “fluorescence intensity drop in the presence of DOPC liposomes” value in data set [2] came out at 5.6%. Besides, the “CL content that can be quantitatively analyzed” value in data set [6] is 0.2 to 10 µM. Moreover, in data set [3], the “fluorescence intensity drop during experiments” value was found to be 15.5%. Also, in data set [1], the “Φ (PLQY, photoluminescence quantum yield)” value is 15.5%; the λabs is listed as 498 nm; the λem amounted to 528 nm. Moreover, in data set [4], the “fluorescence intensity after interaction with CL/DOPC liposomes” value came to 1260 a.u and the “fluorescence intensity before interaction with CL/DOPC liposomes” value is 13300 a.u. Further, the “linear slope of the titration curve” value in data set [5] is on record as −1222±49.
